# Test results: US20040229950A1, “Method and composition with conjugated linoleic acid esters” (priority 2002, published 2004)
# Values joined by “and” are separate entries in the source; they are usually repeats but may differ in a detail not shown here. Identical values can stand only once.
# Assays:
# Human platelets [1] = assay: TXB2 production by platelets pretreated 1 hour with fatty acid/HSA; assay type: cell-based
# Procedure: (§1) The following example illustrates the effect of CLA incorporation into platelet lipids on stimulating the release of endogenous AA and increasing the formation of TXB2. Platelets were prelabeled with either HSA alone or with 25 μM 9Z, 11Z-CLA/HSA for 1 hour at 37° C. After washing, the platelets were incubated for 15 minutes at room temperature, followed by the removal of the supernatants. The supernatants were then assayed for free […] content and TXB2 production. […] When the results of these three experiments are averaged, platelets treated with 9Z, 11Z-CLA stimulated […] release 414±155% and enhanced TXB2 formation 180±30%.
# To compare the stimulatory effect of 9Z, 11Z-CLA on platelet TXB2 formation with other fatty acids, platelets were pretreated for 1 hour with HSA (control), or HSA complexed with either 9Z, 11Z-CLA, 9E,11E-CLA, linoleic acid (LA) or stearic acid (SA). The comparative effects of 25 μM 9Z, 11Z-CLA-, 9E, 11E-CLA-, LA- or SA-treated platelets on platelet TXB2 production is shown is FIG. 1. The values are the mean ±SD.
# Human platelets [2] = assay: TXB2 formation by platelets treated 2 hours with CLA isomer/HSA; assay type: cell-based; details: 25 μM, 2 hours at 37° C.; for TXB2 formation Fold stimulation: mean ± SD, 4 experiments
# Procedure: Human platelets were treated for 2 hours at 37° C. with either HSA complexed with 25 μM of the indicated CLA isomer or with HSA alone. After washing, the platelets were maintained at room temperature for 15 minutes. The supernatants were then removed, the lipid content extracted with chloroform/methanol and the residue, after TLC separation, assayed for TXB2 formation by EIA. The results shown in Table 2 were similar to those obtained with CLA-prelabeled HUVECs. […] Also shown in Table 2 is that the CLA content of the platelet lipids increased from 0.03% to 0.23% after platelet treatment with 9Z, 11Z-CLA/HSA and to 0.66% after 10E, 12Z-CLA/HSA.
# IL-1β-treated HUVECs = assay: 6-ketoPGF1a production from CLA-prelabeled HUVECs; assay type: cell-based, human; details: 25 μM; for HUVEC 6-ketoPGF1a formation fold-stimulation: overnight prelabeling, 15 minutes incubation, mean ± SD, 4 experiments; for range of fold increase in endogenous 6-ketoPGF1a formation: range over four separate experiments
# Procedure: (§2) The following example illustrates the effect of CLA incorporation on 6-ketoPGF1a production from CLA-enriched HUVECs. Following the procedure described by Bordet (1990), IL-1β-treated HUVECs were first pre-enriched during an overnight incubation with human serum albumin (HSA) complexed with either 25 […] 9Z, 11Z-CLA/HSA, 25 μM 10E, 12Z-CLA/HSA or without added fatty acid (control). […] Insignificant differences in cell viabilities (as measured by LDH release) were observed between control cells and cells pretreated with HSA/CLA. After washing, the cells were incubated for 15 minutes, followed by removal of the supernatants, which were then assayed for 6-ketoPGF1a content by EIA. In four separate experiments, control HUVECs produced and released 42-1000 pg/ml of 6-ketoPGF1a.
# [3] = tested on: human umbilical vein endothelial cells (HUVECs); assay: Inhibition of HUVEC 6-ketoPGF1a (PGI2) production by CLA in free fatty acid form; assay type: cell-based; details: CLA in the free fatty acid form
# Procedure: As a consequence, the patent disclosed the use of CLAs to inhibit platelet thromboxane formation or platelet aggregation. […] All of these studies relate to the use of conjugated linoleic acids in the free fatty acid form.
# as §2
# Human platelets [4] = assay: Release of endogenous AA from platelets prelabeled with CLA/HSA; assay type: cell-based
# Procedure: as §1
# [5] = 25 μM, 1 hour pretreatment, versus HSA control, Example 2
# [6] = experiment 1, 25 μM, 1 hour at 37° C.
Structure (SMILES),stimulation of platelet TXB2 production (FIG. 1) (Human platelets [1]; [5]),TXB2 formation Fold stimulation (Human platelets [2]),HUVEC 6-ketoPGF1a formation fold-stimulation (IL-1β-treated HUVECs),range of fold increase in endogenous 6-ketoPGF1a formation (IL-1β-treated HUVECs),inhibition of HUVEC 6-ketoPGF1a / prostacyclin production [3],further results
"CCCCCCCCCCCCCCCCCC(=O)O [SA, stearic acid, reference compound]",did not show an appreciable effect,–,–,–,–,–
"CCCCCCC=CC=CCCCCCCCC(=O)O [9E, 11E-CLA, 9,11-octadecadienoic acid]",–,–,–,–,–,"inhibition at 25 µM (Human platelets [1]; Homo sapiens, Platelet, 25 μM, 1 hour pretreatment, versus HSA control, Example 2, read-out: inhibition of TXB2 formation (FIG. 1)): 37%"
"CCCCC/C=C\C/C=C\CCCCCCCC(=O)O [LA, linoleic acid]",did not show an appreciable effect,–,–,–,–,–
"CCCCCC=CC=CCCCCCCCCC(=O)O [10E, 12Z-CLA, 10,12-octadecadienoic acid]",–,1.3 ± 0.41 (4) fold,3 fold,1.5-7.5 fold,effective inhibitor,"increase in formation and release of TXB2 (Human platelets [2]): 30%; HUVEC 6-ketoPGF1a formation fold-stimulation (IL-1β-treated HUVECs; listed as 10E, 12Z): 3.5 ± 2.7 fold; HUVEC 6-ketoPGF1a formation fold-stimulation (IL-1β-treated HUVECs; listed as 10E, 12Z isomer): not quite half as effective"
"CCCCCCC=CC=CCCCCCCCC(=O)O [9Z, 11Z-CLA, 9,11-octadecadienoic acid]",4 fold,2.3 fold and 2.3 ± 1.0 (4) fold,8 fold,1.9-23 fold,"but not 9Z, 11Z-CLA isomer, was an effective inhibitor","activity at 25 µM (Human platelets [4]; Homo sapiens, Platelet, 1 hour, mean ± S.D. of three experiments, read-out: AA release, % of control, summary of experiments #1-3): 414 ± 155%; AA release (Human platelets [4]; [6]): 27 µg/mL; HUVEC 6-ketoPGF1a formation fold-stimulation (IL-1β-treated HUVECs; listed as 9Z, 11Z): 8.1 ± 10 fold; fold increase in TXB2 formation (Human platelets [1]; 25 μM prelabeling, relative to HSA/platelet controls): 2-4 fold and 2 fold; TXB2 Control (%) (Human platelets [1]; 25 μM, 1 hour at 37° C., single experiments No. 1-3, relative to HSA alone, listed as HSA + ZZ): 146% and 192% and 203%; activity at 25 µM (Human platelets [1]; Homo sapiens, Platelet, 25 μM, 1 hour, mean ± S.D. of three experiments, read-out: TXB2 formation, % of control, summary of experiments #1-3): 180 ± 30%; TXB2 formation (Human platelets [1]; [6]): 0.36 ng/mL"
